The source made the active and inactive calls. Cut-off read from the data, not from the text of the source, for most assays here: actives have a measured Kd and inactives only a lower limit.
Legend:
[1] = biological target: RAC-alpha serine/threonine-protein kinase (Homo sapiens, UniProt P31749)
[2] = biological target: Bone morphogenetic protein receptor type-1A (Homo sapiens, UniProt P36894)
[3] = biological target: Cyclin-dependent kinase 13 (Homo sapiens, UniProt Q14004)
[4] = biological target: Cyclin-dependent kinase 6 (Homo sapiens, UniProt Q00534)
[5] = biological target: T1, ATP-dependent RNA helicase DDX1 (Homo sapiens, UniProt Q92499)
T1 sequence (Q92499 whole entry): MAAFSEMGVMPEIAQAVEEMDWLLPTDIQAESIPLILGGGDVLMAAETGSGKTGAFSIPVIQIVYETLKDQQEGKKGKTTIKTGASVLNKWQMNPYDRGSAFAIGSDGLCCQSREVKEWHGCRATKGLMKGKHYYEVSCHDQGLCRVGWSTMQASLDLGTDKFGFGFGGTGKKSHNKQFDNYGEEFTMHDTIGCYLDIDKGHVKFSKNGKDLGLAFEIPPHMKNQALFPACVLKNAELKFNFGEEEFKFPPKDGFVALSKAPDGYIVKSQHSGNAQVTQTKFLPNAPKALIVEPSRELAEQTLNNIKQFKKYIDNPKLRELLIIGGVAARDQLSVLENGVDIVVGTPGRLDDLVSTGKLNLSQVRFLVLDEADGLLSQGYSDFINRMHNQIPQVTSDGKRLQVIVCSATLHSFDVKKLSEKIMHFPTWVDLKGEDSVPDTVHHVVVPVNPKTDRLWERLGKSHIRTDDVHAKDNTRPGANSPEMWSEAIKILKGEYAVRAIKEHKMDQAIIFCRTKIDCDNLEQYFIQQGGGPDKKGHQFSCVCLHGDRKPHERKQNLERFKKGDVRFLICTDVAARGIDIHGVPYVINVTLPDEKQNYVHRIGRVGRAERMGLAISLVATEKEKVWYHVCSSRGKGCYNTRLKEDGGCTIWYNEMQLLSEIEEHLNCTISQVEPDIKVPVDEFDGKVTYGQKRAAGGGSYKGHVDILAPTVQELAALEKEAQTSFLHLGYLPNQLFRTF

[6] = biological target: T2, Interleukin-1 receptor-associated kinase 3 (Homo sapiens, UniProt Q9Y616)
T2 sequence (Q9Y616 whole entry): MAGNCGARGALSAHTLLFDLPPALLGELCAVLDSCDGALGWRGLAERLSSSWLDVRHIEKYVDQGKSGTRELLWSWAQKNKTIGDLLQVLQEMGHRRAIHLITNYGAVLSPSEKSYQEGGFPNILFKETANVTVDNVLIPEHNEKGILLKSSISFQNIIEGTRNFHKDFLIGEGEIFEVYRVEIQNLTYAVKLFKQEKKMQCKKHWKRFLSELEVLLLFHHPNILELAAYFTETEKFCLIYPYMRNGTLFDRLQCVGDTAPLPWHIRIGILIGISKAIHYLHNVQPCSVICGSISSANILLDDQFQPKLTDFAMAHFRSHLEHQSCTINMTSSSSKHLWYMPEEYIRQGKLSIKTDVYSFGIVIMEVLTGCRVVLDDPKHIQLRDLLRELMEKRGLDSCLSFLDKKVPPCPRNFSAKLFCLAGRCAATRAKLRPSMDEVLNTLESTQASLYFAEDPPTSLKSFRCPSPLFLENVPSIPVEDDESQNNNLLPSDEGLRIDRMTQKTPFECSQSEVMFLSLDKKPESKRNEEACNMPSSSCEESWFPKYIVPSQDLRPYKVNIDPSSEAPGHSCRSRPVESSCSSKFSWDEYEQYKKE

[7] = biological target: Tyrosine-protein kinase Lck (Homo sapiens, UniProt P06239)
[8] = biological target: T3, Mitogen-activated protein kinase kinase kinase kinase 2 (Homo sapiens, UniProt Q12851)
T3 sequence (Q12851 whole entry): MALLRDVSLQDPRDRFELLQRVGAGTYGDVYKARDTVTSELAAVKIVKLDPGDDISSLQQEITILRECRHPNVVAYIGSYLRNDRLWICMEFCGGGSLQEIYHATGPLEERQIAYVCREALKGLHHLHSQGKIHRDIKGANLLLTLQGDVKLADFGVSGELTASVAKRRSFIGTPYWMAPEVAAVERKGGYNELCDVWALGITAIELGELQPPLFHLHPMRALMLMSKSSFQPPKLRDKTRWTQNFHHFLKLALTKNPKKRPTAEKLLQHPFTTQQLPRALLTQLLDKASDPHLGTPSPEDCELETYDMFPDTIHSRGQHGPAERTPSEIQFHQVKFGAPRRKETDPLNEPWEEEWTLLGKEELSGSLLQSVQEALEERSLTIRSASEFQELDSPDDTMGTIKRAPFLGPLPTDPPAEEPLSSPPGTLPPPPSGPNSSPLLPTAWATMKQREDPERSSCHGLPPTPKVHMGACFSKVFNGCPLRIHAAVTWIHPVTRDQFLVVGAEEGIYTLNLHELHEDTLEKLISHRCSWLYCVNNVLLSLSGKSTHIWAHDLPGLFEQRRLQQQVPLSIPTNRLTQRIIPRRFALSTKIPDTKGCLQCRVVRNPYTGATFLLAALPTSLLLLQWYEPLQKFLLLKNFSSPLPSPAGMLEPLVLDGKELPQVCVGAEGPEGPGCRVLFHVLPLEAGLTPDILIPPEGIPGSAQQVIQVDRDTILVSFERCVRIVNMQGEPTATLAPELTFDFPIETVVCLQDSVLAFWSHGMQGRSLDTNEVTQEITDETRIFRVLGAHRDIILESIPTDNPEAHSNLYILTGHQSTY

[9] = biological target: MAP kinase-activated protein kinase 2 (Homo sapiens, UniProt P49137)
[10] = biological target: Hepatocyte growth factor receptor (Homo sapiens, UniProt P08581)
[11] = biological target: Membrane-associated progesterone receptor component 1 (Homo sapiens, UniProt O00264)
Note: in the data inactive means no Kd found up to 30 µM.

Chain of Cyclin-dependent kinase 13 (Q14004 whole entry): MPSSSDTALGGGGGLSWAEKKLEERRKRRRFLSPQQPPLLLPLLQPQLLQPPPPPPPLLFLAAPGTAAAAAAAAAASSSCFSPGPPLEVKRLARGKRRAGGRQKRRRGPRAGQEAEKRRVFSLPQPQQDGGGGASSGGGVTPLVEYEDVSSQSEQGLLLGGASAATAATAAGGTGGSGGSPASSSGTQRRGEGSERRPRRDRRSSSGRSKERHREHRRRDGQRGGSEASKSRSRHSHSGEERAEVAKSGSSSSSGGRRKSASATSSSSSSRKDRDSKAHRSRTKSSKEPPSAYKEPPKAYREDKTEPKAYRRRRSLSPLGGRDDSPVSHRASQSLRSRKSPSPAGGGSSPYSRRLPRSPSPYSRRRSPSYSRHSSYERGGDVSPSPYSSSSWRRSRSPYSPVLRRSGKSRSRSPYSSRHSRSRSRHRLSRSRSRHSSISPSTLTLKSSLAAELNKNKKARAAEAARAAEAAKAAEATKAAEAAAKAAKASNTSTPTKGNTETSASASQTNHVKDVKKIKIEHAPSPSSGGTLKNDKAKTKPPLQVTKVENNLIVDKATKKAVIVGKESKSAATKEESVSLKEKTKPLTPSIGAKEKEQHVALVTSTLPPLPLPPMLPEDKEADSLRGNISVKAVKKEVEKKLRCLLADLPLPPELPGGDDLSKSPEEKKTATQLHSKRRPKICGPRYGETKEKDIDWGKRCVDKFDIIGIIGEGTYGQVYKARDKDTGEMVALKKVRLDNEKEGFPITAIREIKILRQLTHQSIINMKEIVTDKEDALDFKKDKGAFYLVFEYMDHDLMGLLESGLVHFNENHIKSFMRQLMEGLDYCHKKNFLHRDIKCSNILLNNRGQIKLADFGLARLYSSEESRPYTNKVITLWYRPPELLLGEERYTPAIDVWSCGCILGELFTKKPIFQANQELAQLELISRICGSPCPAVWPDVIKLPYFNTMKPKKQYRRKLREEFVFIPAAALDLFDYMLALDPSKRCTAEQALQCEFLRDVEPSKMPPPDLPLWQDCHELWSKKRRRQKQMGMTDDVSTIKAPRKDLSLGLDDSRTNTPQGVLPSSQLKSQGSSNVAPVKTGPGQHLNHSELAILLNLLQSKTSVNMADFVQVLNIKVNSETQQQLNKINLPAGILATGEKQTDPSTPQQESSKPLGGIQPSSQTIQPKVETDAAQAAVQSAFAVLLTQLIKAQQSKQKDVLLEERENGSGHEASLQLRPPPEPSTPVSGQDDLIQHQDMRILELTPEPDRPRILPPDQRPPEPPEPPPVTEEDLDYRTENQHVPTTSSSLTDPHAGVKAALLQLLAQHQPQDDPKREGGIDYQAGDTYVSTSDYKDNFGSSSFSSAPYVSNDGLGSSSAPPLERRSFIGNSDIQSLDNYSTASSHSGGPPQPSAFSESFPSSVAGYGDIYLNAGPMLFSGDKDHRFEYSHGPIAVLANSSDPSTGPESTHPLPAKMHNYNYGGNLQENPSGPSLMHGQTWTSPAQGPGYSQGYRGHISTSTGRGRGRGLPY
Chain of Cyclin-dependent kinase 6 (Q00534 whole entry): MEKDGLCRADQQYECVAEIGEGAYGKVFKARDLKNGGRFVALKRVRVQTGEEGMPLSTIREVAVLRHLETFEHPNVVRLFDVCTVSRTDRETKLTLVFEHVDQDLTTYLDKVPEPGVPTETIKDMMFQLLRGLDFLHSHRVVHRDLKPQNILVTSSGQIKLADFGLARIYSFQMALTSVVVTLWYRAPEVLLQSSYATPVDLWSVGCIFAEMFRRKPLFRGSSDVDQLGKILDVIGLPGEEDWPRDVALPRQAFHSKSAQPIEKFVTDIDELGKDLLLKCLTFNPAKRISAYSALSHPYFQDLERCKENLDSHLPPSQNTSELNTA
Chain of RAC-alpha serine/threonine-protein kinase (P31749 whole entry): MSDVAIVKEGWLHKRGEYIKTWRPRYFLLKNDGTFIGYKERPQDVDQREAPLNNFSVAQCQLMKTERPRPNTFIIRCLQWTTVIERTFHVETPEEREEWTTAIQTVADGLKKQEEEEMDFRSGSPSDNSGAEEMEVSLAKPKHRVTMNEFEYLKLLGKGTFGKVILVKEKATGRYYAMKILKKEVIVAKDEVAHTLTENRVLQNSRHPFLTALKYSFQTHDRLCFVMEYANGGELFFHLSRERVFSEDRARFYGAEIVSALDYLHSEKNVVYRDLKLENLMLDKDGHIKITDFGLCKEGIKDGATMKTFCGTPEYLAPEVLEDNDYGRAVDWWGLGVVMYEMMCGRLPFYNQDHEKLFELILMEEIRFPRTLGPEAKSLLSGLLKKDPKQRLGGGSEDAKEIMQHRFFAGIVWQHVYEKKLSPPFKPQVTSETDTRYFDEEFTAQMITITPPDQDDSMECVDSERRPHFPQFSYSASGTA
Chain of Membrane-associated progesterone receptor component 1 (O00264 whole entry): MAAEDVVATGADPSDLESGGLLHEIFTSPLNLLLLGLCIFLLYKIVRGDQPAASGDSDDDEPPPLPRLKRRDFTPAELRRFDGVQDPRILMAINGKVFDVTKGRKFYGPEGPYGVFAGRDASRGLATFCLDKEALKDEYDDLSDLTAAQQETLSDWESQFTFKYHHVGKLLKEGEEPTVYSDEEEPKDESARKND
Chain of Tyrosine-protein kinase Lck (P06239 whole entry): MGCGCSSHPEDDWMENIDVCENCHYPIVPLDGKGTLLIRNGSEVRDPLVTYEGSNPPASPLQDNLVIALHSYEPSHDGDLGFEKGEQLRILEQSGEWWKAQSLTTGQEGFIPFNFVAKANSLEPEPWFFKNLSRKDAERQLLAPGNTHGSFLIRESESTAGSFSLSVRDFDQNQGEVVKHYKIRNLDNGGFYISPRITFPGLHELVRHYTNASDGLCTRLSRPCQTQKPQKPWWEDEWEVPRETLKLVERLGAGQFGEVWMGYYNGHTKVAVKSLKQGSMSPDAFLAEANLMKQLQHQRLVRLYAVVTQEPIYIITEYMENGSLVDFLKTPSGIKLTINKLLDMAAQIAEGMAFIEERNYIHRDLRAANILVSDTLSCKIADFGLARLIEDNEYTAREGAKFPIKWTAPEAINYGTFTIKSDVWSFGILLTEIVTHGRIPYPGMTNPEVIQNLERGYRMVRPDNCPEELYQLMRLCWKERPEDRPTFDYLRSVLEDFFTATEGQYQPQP
Chain of Bone morphogenetic protein receptor type-1A (P36894 whole entry): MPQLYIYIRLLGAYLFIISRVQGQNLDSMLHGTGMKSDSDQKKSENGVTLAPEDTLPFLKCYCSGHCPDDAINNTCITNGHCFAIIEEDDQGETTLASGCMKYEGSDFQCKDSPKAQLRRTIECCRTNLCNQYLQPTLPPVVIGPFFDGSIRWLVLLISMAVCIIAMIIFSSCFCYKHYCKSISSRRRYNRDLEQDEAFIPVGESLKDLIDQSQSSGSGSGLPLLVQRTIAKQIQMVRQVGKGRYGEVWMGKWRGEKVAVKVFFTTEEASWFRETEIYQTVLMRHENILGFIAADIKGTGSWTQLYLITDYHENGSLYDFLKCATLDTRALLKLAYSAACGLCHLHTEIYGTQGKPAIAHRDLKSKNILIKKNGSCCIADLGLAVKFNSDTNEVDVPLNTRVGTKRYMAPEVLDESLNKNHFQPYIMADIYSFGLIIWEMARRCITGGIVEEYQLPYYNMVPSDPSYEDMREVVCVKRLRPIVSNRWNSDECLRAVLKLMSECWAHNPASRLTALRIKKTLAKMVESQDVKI
Chain of MAP kinase-activated protein kinase 2 (P49137 whole entry): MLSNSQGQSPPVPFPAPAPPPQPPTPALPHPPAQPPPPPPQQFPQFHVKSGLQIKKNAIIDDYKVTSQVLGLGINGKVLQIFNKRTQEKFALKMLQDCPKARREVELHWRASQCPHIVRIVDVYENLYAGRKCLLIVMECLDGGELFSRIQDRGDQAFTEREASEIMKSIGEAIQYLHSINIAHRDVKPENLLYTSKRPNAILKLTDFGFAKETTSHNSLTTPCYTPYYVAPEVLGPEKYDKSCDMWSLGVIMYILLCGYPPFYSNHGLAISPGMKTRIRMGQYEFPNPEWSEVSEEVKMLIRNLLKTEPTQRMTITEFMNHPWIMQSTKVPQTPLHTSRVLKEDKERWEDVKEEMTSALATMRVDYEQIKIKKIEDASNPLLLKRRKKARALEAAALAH

SMILES	Kd [1]	Kd [2]	Kd [3]	Kd [4]	Kd [5]	Kd [6]	Kd [7]	Kd [8]	Kd [9]	Kd [10]	Kd [11]
O=C(Nc1nc2cccc(-c3ccc(CN4CCS(=O)(=O)CC4)cc3)n2n1)C1CC1 [FILGOTINIB]	> 30 µM (inactive)	> 30 µM (inactive)	> 30 µM (inactive)	> 30 µM (inactive)	> 30 µM (inactive)	> 30 µM (inactive)	> 30 µM (inactive)	> 30 µM (inactive)	> 30 µM (inactive)	> 30 µM (inactive)	> 30 µM (inactive)
Cc1cccc(-c2nn3c(c2-c2ccnc4ccc(C(N)=O)cc24)CCC3)n1 [GALUNISERTIB]	> 30 µM (inactive)	> 30 µM (inactive)	> 30 µM (inactive)	> 30 µM (inactive)	> 30 µM (inactive)	> 30 µM (inactive)	> 30 µM (inactive)	> 30 µM (inactive)	> 30 µM (inactive)	> 30 µM (inactive)	> 30 µM (inactive)
O=C(Nc1cc(C(F)(F)F)cc(C(F)(F)F)c1)c1cc(Cl)ccc1O [IMD-0354]	> 30 µM (inactive)	> 30 µM (inactive)	> 30 µM (inactive)	> 30 µM (inactive)	> 30 µM (inactive)	> 30 µM (inactive)	> 30 µM (inactive)	> 30 µM (inactive)	> 30 µM (inactive)	> 30 µM (inactive)	> 30 µM (inactive)
CNC(=O)c1cccc2cc(Oc3ccnc4cc(OCC5(N)CC5)c(OC)cc34)ccc12 [LUCITANIB]	> 30 µM (inactive)	> 30 µM (inactive)	> 30 µM (inactive)	> 30 µM (inactive)	> 30 µM (inactive)	> 30 µM (inactive)	> 30 µM (inactive)	> 30 µM (inactive)	> 30 µM (inactive)	> 30 µM (inactive)	> 30 µM (inactive)
CN(C[C@@H]1COCCO1)S(=O)(=O)Nc1ccc2ccc3ncc(-c4cnn(C)c4)cc3c(=O)c2c1 [MK-2461]	> 30 µM (inactive)	> 30 µM (inactive)	> 30 µM (inactive)	> 30 µM (inactive)	> 30 µM (inactive)	0.502 µM (active)	> 30 µM (inactive)	> 30 µM (inactive)	> 30 µM (inactive)	> 30 µM (inactive)	> 30 µM (inactive)
FC(F)(F)c1ccc(/C=C/c2nc(COc3ccc(CCCCn4ccnn4)cc3)co2)cc1 [MUBRITINIB]	> 30 µM (inactive)	> 30 µM (inactive)	> 30 µM (inactive)	> 30 µM (inactive)	> 30 µM (inactive)	> 30 µM (inactive)	> 30 µM (inactive)	> 30 µM (inactive)	> 30 µM (inactive)	> 30 µM (inactive)	> 30 µM (inactive)
Cc1nc(Nc2n[nH]c3c2CN(C(=O)N[C@H](CN(C)C)c2ccccc2)C3(C)C)c2sccc2n1 [PF-03758309]	> 30 µM (inactive)	> 30 µM (inactive)	> 30 µM (inactive)	> 30 µM (inactive)	> 30 µM (inactive)	> 30 µM (inactive)	> 30 µM (inactive)	> 30 µM (inactive)	> 30 µM (inactive)	> 30 µM (inactive)	> 30 µM (inactive)
Cc1cnc(NC(=O)Nc2cc(Br)c(C)cc2OC[C@@H]2CNCCO2)cn1 [RABUSERTIB]	> 30 µM (inactive)	> 30 µM (inactive)	> 30 µM (inactive)	> 30 µM (inactive)	> 30 µM (inactive)	> 30 µM (inactive)	> 30 µM (inactive)	> 30 µM (inactive)	> 30 µM (inactive)	> 30 µM (inactive)	> 30 µM (inactive)
CO[C@H]1C[C@@H]2CC[C@@H](C)[C@@](O)(O2)C(=O)C(=O)N2CCCC[C@H]2C(=O)O[C@H]([C@H](C)C[C@@H]2CC[C@@H](OP(C)(C)=O)[C@H](OC)C2)CC(=O)[C@H](C)/C=C(\C)[C@@H](O)[C@@H](OC)C(=O)[C@H](C)C[C@H](C)/C=C/C=C/C=C/1C [RIDAFOROLIMUS]	> 30 µM (inactive)	> 30 µM (inactive)	> 30 µM (inactive)	> 30 µM (inactive)	> 30 µM (inactive)	> 30 µM (inactive)	> 30 µM (inactive)	> 30 µM (inactive)	> 30 µM (inactive)	> 30 µM (inactive)	> 30 µM (inactive)
O=c1[nH]ccc2cc(OC3CCNCC3)ccc12 [SAR-407899 FREE BASE]	> 30 µM (inactive)	> 30 µM (inactive)	> 30 µM (inactive)	> 30 µM (inactive)	> 30 µM (inactive)	> 30 µM (inactive)	> 30 µM (inactive)	> 30 µM (inactive)	> 30 µM (inactive)	> 30 µM (inactive)	> 30 µM (inactive)
Cn1cc(-c2cnn3c(N)c(Br)c([C@@H]4CCCNC4)nc23)cn1 [SCH-900776]	> 30 µM (inactive)	> 30 µM (inactive)	> 30 µM (inactive)	> 30 µM (inactive)	> 30 µM (inactive)	> 30 µM (inactive)	> 30 µM (inactive)	> 30 µM (inactive)	> 30 µM (inactive)	> 30 µM (inactive)	> 30 µM (inactive)
CCS(=O)(=O)c1cccc(-c2cc(C(=O)NC3CCN(C)CC3)c(C)c3[nH]c4ncc(C)cc4c23)c1 [TAK-901]	> 30 µM (inactive)	> 30 µM (inactive)	> 30 µM (inactive)	> 30 µM (inactive)	> 30 µM (inactive)	0.027 µM (active)	0.105 µM (active)	> 30 µM (inactive)	> 30 µM (inactive)	> 30 µM (inactive)	> 30 µM (inactive)
CO[C@H]1C[C@@H]2CC[C@@H](C)[C@@](O)(O2)C(=O)C(=O)N2CCCC[C@H]2C(=O)O[C@H]([C@H](C)C[C@@H]2CC[C@@H](OC(=O)C(C)(CO)CO)[C@H](OC)C2)CC(=O)[C@H](C)/C=C(\C)[C@@H](O)[C@@H](OC)C(=O)[C@H](C)C[C@H](C)/C=C/C=C/C=C/1C [TEMSIROLIMUS]	> 30 µM (inactive)	> 30 µM (inactive)	> 30 µM (inactive)	> 30 µM (inactive)	> 30 µM (inactive)	> 30 µM (inactive)	> 30 µM (inactive)	> 30 µM (inactive)	> 30 µM (inactive)	> 30 µM (inactive)	> 30 µM (inactive)
